Test results: patent US20110150769A1, “IDENTIFICATION AND USE OF COMPOUNDS FOR TREATING PERSISTENT PAIN” (priority 2009, published 2011)

Experiments:
DRG neurons = assay: Calcium imaging of cultured DRG neurons; type: cell-based, mouse; settings: for percentage of DRG neurons responding, WT vs MrgprA1GFP/GFP mice: comparison of WT and MrgprA1GFP/GFP mice
Method: Calcium Imaging of Cultured Dorsal Root Ganglia (DRG) Neurons
DRG neurons were plated on poly-D-lysine/laminin-coated coverslips and cultured for 24 hours. […] Briefly, neurons were loaded with Fura 2-acetomethoxy ester (Molecular Probes) for 30 min in dark at room temperature. After washing, neurons were imaged at 340/380 nm excitation to detect intracellular free calcium. All tests were performed with an experimenter blinded to the genotype.

[1] = tested on: small-diameter primary sensory neurons (DRG neurons); assay: Whole-cell recordings of cultured DRG neurons (evoked action potentials); type: cell-based, mouse
Method: Whole-Cell Voltage-Clamp Recordings of Cultured DRG Neurons
Dissociated DRG neurons were plated on coverslips and cultured for 2-7 hours. For clamp recording, coverslips were perfused with extracellular solution (ECS) consisting of (in mM): NaCl 140, KCl 4, CaCl2 2, MgCl2 2, HEPES 10, Glucose 5, with pH adjusted to 7.38 using NaOH. Neurons with cell body diameters between 22 and 25 μm were recorded in the whole-cell voltage-clamp configuration with electrodes (pipette solution in mM: KCl 135, MgATP 3, Na2ATP 0.5, CaCl2 1.1, EGTA 2, Glucose 5, pH adjusted to 7.38) using an Axon 700B amplifier and the pCLAMP 9.2 software package (Axon Instruments). Electrodes were pulled (Narishige, Model pp-830) from borosilicate glass (WPI, Inc), and after filling they had resistances of 2-4 MΩ. Neurons were perfused with […] FMRFamide for 30 seconds and washed for 3 minutes. Action potentials were elicited with prolonged injections (500 ms) of a depolarizing current (200 pA) before and after FMRFamide treatment. All experiments were performed at room temperature with an experimenter blinded to the genotype.

[2] = adult mutant (Mrgpr-clusterΔ−/−) DRG neurons

Substance | responses in DRG neurons (DRG neurons; [2]) | percentage of DRG neurons responding, WT vs MrgprA1GFP/GFP mice (DRG neurons) | responses in DRG neurons (DRG neurons; newborn Mrgpr-clusterΔ−/− mice) | firing rate ([1]; Mrgpr-deficient neurons) | number of action potentials evoked by injection of depolarizing current ([1]; WT DRG neurons, current-clamp) | cells with sensitizing effect / cells recorded ([1]; WT adult DRG neurons, cell body diameter 22 to 25 μm) | average number of action potentials after treatment ([1]; WT neurons, n=10, 500 ms, 200 pA depolarizing current, before treatment 3.6±1.6) | cells with sensitizing effect / cells recorded ([1]; neurons from Mrgpr-clusterΔ−/− mice)
FMRFamide | no responses | did not differ significantly | few or no responses | did not show an increase in firing rate | significant increase | 10 of 23 | 7.7±1.9 | 1 of 20
NPFF | no responses | did not differ significantly | few or no responses | – | – | – | – | –
